Laboratory results published in US12319703B2, “Macrocyclic fused pyrazoles as Mcl-1 inhibitors” (ASCENTAGE PHARMA (SUZHOU) CO., LTD., priority 2019, dated 2025).
In brackets after ≈: the same amount, converted by molar mass.

Assays:
[1] = from CCOC(=O)c1c(CCCOc2cc(S)cc3ccccc23)c2ccc(Cl)c(-c3c(CSCc4cc(CBr)n(C)n4)nn4c3CCC4)c2n1C; thioether bond; K2CO3; acetonitrile; 3.14 mM; 25.0 °C; 3.0 h; 6 steps
OPM-2 cells = assay: Cell viability assay (OPM-2 cells), CCK-8; type: cell-based; details: Homo sapiens, OPM-2, 24 h, WST, 5% FBS, read-out: OPM2 (WST, 5% FBS)
In short: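 OPM-2 cells from DSMZ were tested for viability with a Cell Counting Kit-8 (CCK-8) assay. Serially diluted compound (100 μL) was added to 96-well plates, then 100 μL of cell suspension (20000 cells/well) was added, and plates were incubated at 37° C. under 5% CO2 for 24 hours. After 20 μL CCK-8 solution and 4 hours of incubation, absorbance was read at 450 nm. Readings were normalized to vehicle and IC50 was fitted by nonlinear regression in GraphPad Prism 6.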

NCI-H929 cells = assay: Cell viability assay (NCI-H929 cells), CCK-8; type: cell-based; details: Homo sapiens, NCI-H929, 24 h, WST, 5% FBS
Kinetic solubility assay = type: physicochemical; details: PBS buffer pH 6.5, aqueous buffer, thermodynamic from solid; pH 6.5 PBS buffer, HPLC; read-out: Solubility (pH 6.5, μg/mL)
Description: Representative Compounds of the Disclosure were tested in a solubility assay with pH 6.5 PBS buffer. PBS buffer was prepared by dissolving 4.86 g of potassium dihydrogen phosphate and 5.09 g of disodium hydrogen phosphate dodecahydrate in 1 L of ultrapure water to have final pH value of 6.5. In the solubility assay, 0.5 mg of test sample was dissolved in 1 mL of methanol and the stock solution was transferred into 2 mL EP tube, and evaporated at 50° C. for 3 h. To the tube was added 1 mL of PBS buffer and the mixture was stirred and shaken for 1-2 h. The solution was allowed to stand overnight and then filtered before HPLC analysis. Another 1.5 mg of the sample was dissolved in 3 mL of methanol to prepare a calibration curve with a series of concentration range of 5-500 μM. The solubility of each sample was determined by the measured peak area in HPLC.

[2] = target: T1, Mcl-1 protein (residues 171-323) (Homo sapiens, UniProt Q07820); assay: Inhibition of Mcl-1 by fluorescence polarization (FP) competitive binding assay; details: FAM-Bid tracer 2 nM, Mcl-1 20 nM, 30 min
T1 construct: Tag-free Mcl-1 protein (residues 171-323) was used in the FP assay
In short: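 FAM-Bid peptide (2 nM) was competed against Mcl-1 (20 nM) in PBS with 0.01% BGG and 0.01% Triton X-100 at 5% final DMSO. Anisotropy was read as mP over a 10-point dilution series. IC50 came from a sigmoidal dose-response nonlinear fit.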

T1 sequence (Q07820 171-323): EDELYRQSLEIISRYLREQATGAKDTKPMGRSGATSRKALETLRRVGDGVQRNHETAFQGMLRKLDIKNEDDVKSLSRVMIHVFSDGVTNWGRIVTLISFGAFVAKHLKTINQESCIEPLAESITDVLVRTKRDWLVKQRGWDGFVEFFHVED

SMILES | ring closure, yield of all isomers [1] [%] | IC50 (OPM-2 cells) [nM] | IC50 (NCI-H929 cells) [nM] | solubility (Kinetic solubility assay) [µg/mL] | IC50 [2] [nM]
Cn1nc2cc1CSc1cc(c3ccccc3c1)OCCCc1c(C(=O)O)n(C)c3c(c(Cl)ccc13)-c1c(nn3c1CCC3)CSC2 | 3 | – | – | – | –
Cc1oc2nc1CSc1cc(c3ccccc3c1)OCCCc1c(C(=O)O)n(C)c3c(c(Cl)ccc13)-c1c(nn3c1OCC3)CSC2 [compound 38, (Z)-1^6-chloro-1^1,6^5-dimethyl-2^2,2^3-dihydro-1^1H-10-oxa-4,8-dithia-2(7,6)-pyrazolo[5,1-b]oxazola-6(2,4)-oxazola-1(7,3)-indola-9(3,1)-naphthalenacyclotridecaphane-1^2-carboxylic acid] | – | 5880 | 5990 | 127 (≈ 185 µM) | 85
Cn1nc2cc1CSc1cc(c3cc(F)ccc3c1)OCCCc1c(C(=O)O)n(C)c3c(c(Cl)ccc13)-c1c(nn3c1COCC3)CSC2 [compound 16, (Z)-1^6-chloro-9^7-fluoro-1^1,6^1-dimethyl-2^6,2^7-dihydro-1^1H,2^4H,6^1H-10-oxa-4,8-dithia-2(3,2)-pyrazolo[5,1-c][1,4]oxazina-1(7,3)-indola-6(3,5)-pyrazola-9(3,1)-naphthalenacyclotridecaphane-1^2-carboxylic acid] | – | 2400 | 360 | < 1 | 20.7
Cn1nc2cc1CSc1cc(c3ccccc3c1)OCCCc1c(C(=O)O)n(C)c3c(c(Cl)ccc13)-c1c(nn3c1CCCCC3)CSC2 [compound 23, (Z)-1^6-chloro-1^1,6^1-dimethyl-2^5,2^6,2^7,2^8-tetrahydro-1^1H,2^4H,6^1H-10-oxa-4,8-dithia-2(3,2)-pyrazolo[1,5-a]azepina-1(7,3)-indola-6(3,5)-pyrazola-9(3,1)-naphthalenacyclotridecaphane-1^2-carboxylic acid] | – | 195 | 100 | < 1 | 10
